Measured values reported in patent US20250092066A1, “SUBSTITUTED BICYCLIC HETEROCYCLES AS MALT-1 INHIBITORS” (AURIGENE ONCOLOGY LIMITED, priority 2022, published 2025).

Target: MALT-1 (Isoform1) (Homo sapiens (Human), UniProt Q9UDY8)
Assay: Biochemical fluorescent assay of MALT-1 (Isoform1) enzyme inhibition
Details: recombinant MALT-1 (Isoform1); for inhibition at 1 µM / Percent Inhibition (@ 1 μM): compound at 1 μM; for inhibition at 1 µM: read-out: Percent Inhibition (@ 1 μM); for IC50: 50 μM AC-LRSR-MAC substrate, 240 min
Description: The potency of compounds to inhibit MALT-1 (Isoform1) enzyme was tested in a Fluorescent assay using recombinant MALT-1 (Isoform1, aa-840) generated in-house. The assay buffer was 50 mM HEPES (pH 7.5), 100 mM NaCl, 10 mM DTT, 1 mM EDTA, 0.9 M sodium citrate, 0.01% CHAPS. 1.5 nM of MALT-1 enzyme was incubated with various concentrations of test compounds ([…]) (1% DMSO) in the presence of buffer for 30 minutes at 30° C. The protease reaction was initiated by adding 50 μM of AC-LRSR-MAC (Peptide International, USA) substrate and incubated for 240 min. After 240 min incubation, fluorescence emission of the samples at 460 nm was measured at an excitation of 355 nm. The percent inhibition was calculated using the following formula: […]. IC50 values were determined by fitting the dose-response data to sigmoidal curve fitting equation using Graph pad prism software VS.

Sequence of MALT-1 (Isoform1) (Q9UDY8 whole entry, canonical isoform): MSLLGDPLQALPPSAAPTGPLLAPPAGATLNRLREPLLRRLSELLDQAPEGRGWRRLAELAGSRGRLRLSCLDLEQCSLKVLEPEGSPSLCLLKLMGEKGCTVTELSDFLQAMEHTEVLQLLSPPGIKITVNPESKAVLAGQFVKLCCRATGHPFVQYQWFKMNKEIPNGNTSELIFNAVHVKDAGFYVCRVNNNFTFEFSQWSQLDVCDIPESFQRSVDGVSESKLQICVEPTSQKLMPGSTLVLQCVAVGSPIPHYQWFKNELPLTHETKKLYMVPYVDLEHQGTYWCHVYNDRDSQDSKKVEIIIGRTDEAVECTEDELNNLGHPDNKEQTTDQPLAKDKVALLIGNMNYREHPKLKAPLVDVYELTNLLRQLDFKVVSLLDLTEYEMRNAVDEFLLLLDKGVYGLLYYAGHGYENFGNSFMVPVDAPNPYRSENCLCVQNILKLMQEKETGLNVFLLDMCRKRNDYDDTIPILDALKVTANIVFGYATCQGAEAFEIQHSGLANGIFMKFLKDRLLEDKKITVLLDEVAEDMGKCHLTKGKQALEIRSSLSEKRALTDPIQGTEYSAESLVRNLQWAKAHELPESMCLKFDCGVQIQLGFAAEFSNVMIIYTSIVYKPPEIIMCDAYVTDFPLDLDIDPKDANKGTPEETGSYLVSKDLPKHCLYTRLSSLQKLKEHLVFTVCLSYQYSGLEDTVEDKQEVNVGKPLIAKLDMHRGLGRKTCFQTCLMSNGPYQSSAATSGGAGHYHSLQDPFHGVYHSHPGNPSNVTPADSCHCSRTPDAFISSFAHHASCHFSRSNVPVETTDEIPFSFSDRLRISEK

Row | SMILES | inhibition at 1 µM [%] | IC50 [nM] | Percent Inhibition (@ 1 μM) [%]
1 | COC(c1c(NC(=O)Nc2cc(F)c3nc(C)nn3c2)cnc2cc(Cl)nn12)C1CC1 (racemic) [Example 32, 1-(2-chloro-7-(cyclopropyl(methoxy)methyl)pyrazolo[1,5-a]pyrimidin-6-yl)-3-(8-fluoro-2-methyl-[1,2,4]triazolo[1,5-a]pyridin-6-yl)urea] | 100 | < 50 | –
2 | CO[C@@H](C)c1c(NC(=O)Nc2cc(C(F)(F)F)c3ncnn3c2)cnc2cc(Cl)nn12 [Example 4] | 94 | 51 to 250 | –
3 | CO[C@@H](C)c1c(NC(=O)Nc2cc(Cl)c3nc(C4CC4)nn3c2)cnc2cc(Cl)nn12 [Example 6] | 97 | < 50 | –
4 | CO[C@@H](C)c1c(NC(=O)Nc2ccc3nncn3c2)cnc2cc(Cl)nn12 [Example 20] | 16 | > 250 | –
5 | CO[C@@H](C)c1c(NC(=O)Nc2cc(F)c3nc(CN(C)C)nn3c2)cnc2cc(Cl)nn12 [Example 29] | 83 | 51 to 250 | –
6 | CO[C@@H](C)c1c(NC(=O)Nc2cc(F)c3nc(C)cn3c2)cnc2cc(Cl)nn12 [Example 41] | 69 | > 250 | –
7 | CO[C@@H](C)c1c(NC(=O)Nc2cc(Cl)c3nc(C(C)C)nn3c2)cnc2cc(Cl)nn12 [Example 7] | 96 | < 50 | –
8 | COC(C)c1c(NC(=O)Nc2cc(Cl)c3ncnn3c2)cnc(C)c1Br (single isomer, unassigned) [Example 34a, 1-(5-bromo-4-(1-methoxyethyl)-6-methylpyridin-3-yl)-3-(8-chloro-[1,2,4]triazolo[1,5-a]pyridin-6-yl)urea] | 79 | 51 to 250 | –
9 | COC(C)c1c(NC(=O)Nc2cc(Cl)c3ncnn3c2)cnc(C)c1Br (centres unmarked) [Example 34b, 1-(5-bromo-4-(1-methoxyethyl)-6-methylpyridin-3-yl)-3-(8-chloro-[1,2,4]triazolo[1,5-a]pyridin-6-yl)urea] | 33 | – | –
10 | COCc1c(NC(=O)Nc2cc(F)c3nc(C)nn3c2)cnc2cc(Cl)nn12 [Example 22] | 62 | > 250 | –
11 | CO[C@@H](C)c1c(NC(=O)Nc2cc(F)c3nc(C)c(C)n3c2)cnc2cc(Cl)nn12 [Example 42] | 79 | 51 to 250 | –
12 | CO[C@@H](C)c1c(NC(=O)Nc2cc(F)c3ncnn3c2)cnc2cc(C(F)F)nn12 [Example 45] | 78 | 51 to 250 | –
13 | COC(C)c1c(NC(=O)Nc2cc(Cl)c3nc(C)nn3c2)cnc(C)c1Br (single isomer, unassigned) [Example 35a, 1-(5-bromo-4-(1-methoxyethyl)-6-methylpyridin-3-yl)-3-(8-chloro-2-methyl-[1,2,4]triazolo[1,5-a]pyridin-6-yl)urea] | – | 51 to 250 | 88
14 | CO[C@@H](C)c1c(NC(=O)Nc2cc(F)c3nc(C)nn3c2)cnc2cc(OC(F)F)nn12 [Example 26] | 71 | > 250 | –
15 | COC(C)c1c(NC(=O)Nc2cc(Cl)c3ncnn3c2)cnc(C)c1Br (racemic) [Example 34, 1-(5-bromo-4-(1-methoxyethyl)-6-methylpyridin-3-yl)-3-(8-chloro-[1,2,4]triazolo[1,5-a]pyridin-6-yl)urea] | 71 | > 250 | –
16 | Cc1nc2c(F)cc(NC(=O)Nc3cnc4cc(Cl)nn4c3C3CC3)cn2n1 [Example 15] | 79 | 51 to 250 | –
17 | CO[C@@H](C)c1c(NC(=O)Nc2cc(F)c3ncnn3c2)cnc2cc(C(F)(F)F)nn12 [Example 27] | 87 | 51 to 250 | –
18 | COC(C)c1c(NC(=O)Nc2cc(Cl)c3nc(C)nn3c2)cnc(C)c1Br (racemic) [Example 35, 1-(5-bromo-4-(1-methoxyethyl)-6-methylpyridin-3-yl)-3-(8-chloro-2-methyl-[1,2,4]triazolo[1,5-a]pyridin-6-yl)urea] | 72 | > 250 | –
19 | COC(C)c1c(NC(=O)Nc2cc(F)c3nc(C)nn3c2)cnc(C)c1Br (centres unmarked) [Example 36] | 69 | > 250 | –
20 | CO[C@@H](C)c1c(NC(=O)Nc2cc(C#N)c3ncnn3c2)cnc2cc(Cl)nn12 [Example 18] | 98 | < 50 | –
21 | Cc1nc2c(F)cc(NC(=O)Nc3cnc4cc(Cl)nn4c3C3CCCO3)cn2n1 (centres unmarked) [Example 12] | 81 | 51 to 250 | –
22 | CO[C@@H](C)c1c(NC(=O)Nc2cc(Cl)c3nccn3c2)cnc2cc(Cl)nn12 [Example 40] | 96 | 51 to 250 | –
23 | CO[C@@H](C)c1c(NC(=O)Nc2cc(Cl)c3ncnn3c2)cnc2cc(Cl)nn12 [Example 2] | 97 | < 50 | –
24 | CO[C@@H](C)c1c(NC(=O)Nc2cc(F)c3nc(C)nn3c2)cnc2cc(C3CC3)nn12 [Example 46] | 40 | < 50 | –
25 | CO[C@@H](C)c1c(NC(=O)Nc2cc(F)c3ncc(C)n3c2)cnc2cc(Cl)nn12 [Example 44] | 90 | 51 to 250 | –

More lines, now with the values ahead:

Row | inhibition at 1 µM [%] | IC50 [nM] | Percent Inhibition (@ 1 μM) [%] | SMILES
26 | 90 | < 50 | – | Cc1nc2c(F)cc(NC(=O)Nc3cnc4cc(Cl)nn4c3C(C)C)cn2n1 [Example 16]
27 | 98 | < 50 | – | CO[C@@H](C)c1c(NC(=O)Nc2cc(C(F)(F)F)c3nc(C)nn3c2)cnc2cc(Cl)nn12 [Example 11]
28 | – | 51 to 250 | 96 | CCC(OC)c1c(NC(=O)Nc2cc(F)c3nc(C)nn3c2)cnc2cc(Cl)nn12 (single isomer, unassigned) [Example 33b, 1-(2-chloro-7-(1-methoxypropyl)pyrazolo[1,5-a]pyrimidin-6-yl)-3-(8-fluoro-2-methyl-[1,2,4]triazolo[1,5-a]pyridin-6-yl)urea]
29 | 84 | 51 to 250 | – | CO[C@@H](C)c1c(NC(=O)Nc2cc(F)c3nc(CO)nn3c2)cnc2cc(Cl)nn12 [Example 13]
30 | 99 | < 50 | – | CO[C@@H](C)c1c(NC(=O)Nc2cc(C#N)c3nc(C)nn3c2)cnc2cc(Cl)nn12 [Example 14]
31 | 100 | < 50 | – | COC(c1c(NC(=O)Nc2cc(F)c3nc(C)nn3c2)cnc2cc(Cl)nn12)C(C)C (racemic) [Example 31, 1-(2-chloro-7-(1-methoxy-2-methylpropyl)pyrazolo[1,5-a]pyrimidin-6-yl)-3-(8-fluoro-2-methyl-[1,2,4]triazolo[1,5-a]pyridin-6-yl)urea]
32 | 82 | < 50 | – | COCc1nc2c(F)cc(NC(=O)Nc3cnc4cc(Cl)nn4c3[C@H](C)OC)cn2n1 [Example 17]
33 | 92 | < 50 | – | CO[C@@H](C)c1c(NC(=O)Nc2cc(F)c3nc(C)nn3c2)cnc2cc(Cl)nn12 [Example 9]
34 | 54 | < 50 | – | CO[C@@H](C)c1c(NC(=O)Nc2cc(F)c3nc(C)nn3c2)cnc2cc(C#N)nn12 [Example 47]
35 | 80 | 51 to 250 | – | CO[C@@H](C)c1c(NC(=O)Nc2cc(F)c3nc(C)nn3c2)cnc2cc(F)nn12 [Example 24]
36 | 99 | < 50 | – | CCC(OC)c1c(NC(=O)Nc2cc(F)c3nc(C)nn3c2)cnc2cc(Cl)nn12 (single isomer, unassigned) [Example 33a, 1-(2-chloro-7-(1-methoxypropyl)pyrazolo[1,5-a]pyrimidin-6-yl)-3-(8-fluoro-2-methyl-[1,2,4]triazolo[1,5-a]pyridin-6-yl)urea]
